Laboratory results from patent publication US9533026B2, “Polypeptide compounds for inhibiting angiogenesis and tumor growth” (VasGene Therapeutics, Inc., priority 2004, dated 2017).

B1: B2EC: soluble extracellular domain of human Ephrin B2, SEQ ID NO:3 (protein)
chain: MAVRRDSVWKYCWGVLMVLCRTAISKSIVLEPIYWNSSNSKFLPGQGLVLYPQIGDKLDIICPKVDSKTVGQYEYYKVYMVDKDQADRCTIKKENTPLLNCAKPDQDIKFTIKFQEFSPNLWGLEFQKNKDYYIISTSNGSLEGLDNQEGGVCQTRAMKILMKVGQDASSAGSTRNKDPTRRPELEAGTNGRSSTTSPFVKPNPGSSTDGNSAGHSGNNILGSEVGSHHHHHH
modifications: Recombinant B2EC protein
B2: GCF1: EphB4EC variant, globular, Cys-rich and the first FNIII domain, 6xHis tagged, SEQ ID NO:13 (protein)
chain: MELRVLLCWASLAAALEETLLNTKLETADLKWVTFPQVDGQWEELSGLDEEQHSVRTYEVCEVQRAPGQAHWLRTGWVPRRGAVHVYATLRFTMLECLSLPRAGRSCKETFTVFYYESDADTATALTPAWMENPYIKVDTVAAEHLTRKRPGAEATGKVNVKTLRLGPLSKAGFYLAFQDQGACMALLSLHLFYKKCAQLTVNLTRFPETVPRELVVPVAGSCVVDAVPAPGPSPSLYCREDGQWAEQPVTGCSCAPGFAEGNTKCRACAQGTFKPLSGEGSCQPCPANSHSNTIGSAVCQCRVGYFRARTDPRGAPCTTPPSAPRSVVSRLNGSSLHLEWSAPLESGGREDLTYALRCRECRPGGSCAPCGGDLTFDPGPRDLVEPWVVVRGLRPDFTYTFEVTALNGVSSLATGPVPFEPVNVHHHHHH
modifications: Recombinant GCF
B3: GC: EphB4EC deletion variant, globular domain and Cys-rich domain, 6xHis tagged, SEQ ID NO:12 (protein)
chain: MELRVLLCWASLAAALEETLLNTKLETADLKWVTFPQVDGQWEELSGLDEEQHSVRTYEVCEVQRAPGQAHWLRTGWVPRRGAVHVYATLRFTMLECLSLPRAGRSCKETFTVFYYESDADTATALTPAWMENPYIKVDTVAAEHLTRKRPGAEATGKVNVKTLRLGPLSKAGFYLAFQDQGACMALLSLHLFYKKCAQLTVNLTRFPETVPRELVVPVAGSCVVDAVPAPGPSPSLYCREDGQWAEQPVTGCSCAPGFEAAEGNTKCRACAQGTFKPLSGEGSCQPCPANSHSNTIGSAVCQCRVGYFRARTDPRGAPCTTPPSAHHHHHH
modifications: Recombinant B4EC-GC

Key:
[1] = tested on: EphB4; experiment: EGF regulation of EphB4 in SCC15 cells with kinase inhibitors (Western blot); format: cell-based, human; conditions: for EGF stimulated induction of EphB4: serum-starved SCC15, 10 ng/ml EGF, 24 h; for basal levels of EphB4: serum-starved SCC15, 24 h
Description: B) SCC15 cells were serum-starved for 24 h prior to an additional 24 incubation as indicated with or without EGF (10 ng/ml), 3 μM U73122, or 5 μM SH-5, 5 μM SP600125, […] LY294002, - - μM PD098095 or 5 μM SB203580. N/A indicates cultures that received equal volume of diluent (DMSO) only. Cell lysates were subjected to Western Blot with EphB4 monoclonal antibody. β-actin signal serves as control of protein loading and transfer.

[2] = tested on: human endothelial cells; experiment: Endothelial cell chemotaxis / migration (Boyden chamber); format: cell-based; conditions: umbilical cord and hepatic AECs or VECs; growth factor stimuli
Description: Migration is assessed using the 48-well Boyden chamber and 8 μm pore size collagen-coated (10 μg/ml rat tail collagen; Collaborative Laboratories) polycarbonate filters (Osmonics, Inc.). The bottom chamber wells receive 27-29 μl of DMEM medium alone (baseline) or medium containing chemo-attractant (bFGF, VEGF or Swiss 3T3 cell conditioned medium). The top chambers receive 45 μl of HUVEC cell suspension (1×10^6 cells/ml) prepared in DMEM+1% BSA with or without test compound. After 5 h incubation at 37° C., the membrane is rinsed in PBS, fixed and stained in Diff-Quick solutions. The filter is placed on a glass slide with the migrated cells facing down and cells on top are removed using a Kimwipe. The testing is performed in 4-6 replicates and five fields are counted from each well. Negative unstimulated control values are subtracted from stimulated control and drug treated values and data is plotted as mean migrated cell±S.D. IC50 is calculated from the plotted data.
Chemotaxis of HUVECs to VEGF was assessed using a modified Boyden chamber, transwell membrane filter inserts in 24 well plates, 6.5 mm diam, 8 μm pore size, 10 μm thick matrigel coated, polycarbonate membranes (BD Biosciences). The cell suspensions of HUVECs (2×10^5 cells/ml) in 200 μl of EBM were seeded in the upper chamber and the soluble EphB4 protein were added simultaneously with stimulant (VEGF or bFGF) to the lower compartment of the chamber and their migration across a polycarbonate filter in response to 10-20 ng/ml of VEGF with or without 100 nM-1 μM test compound was investigated. After incubation for 4-24 h at 37° C., the upper surface of the filter was scraped with swab and filters were fixed and stained with Diff Quick. Ten random fields at 200× mag were counted and the results expressed as mean # per field. Negative unstimulated control values were subtracted from stimulated control and protein treated sample values and the data was plotted as mean migrated cell±S.D. IC50 was calculated from the plotted data.

[3] = tested on: HUVEC; experiment: Endothelial cell tube (cord) formation on Matrigel; format: cell-based, human
Description: Cord formation assay of HUVEC in Matrigel™ (upper row). Cells in exponential growth phase were treated overnight with the indicated concentrations of EphB4 extracellular domain (ECD) prior to plating on Matrigel™. Cells were trypsinized and plated (1×10^5 cells/well) in a 24-well plate containing 0.5 ml Matrigel™. Shown are representative 20× phase contrast fields of cord formation after 8 hr plating on Matrigel™ in the continued presence of the test compounds as shown. Original magnification 200×. KS-SLK cells treated in a similar manner (middle row) in a cord formation assay on Matrigel™. […] After 7 days the plugs were removed, sectioned and stained with H&E to visualize cells migrating into the matrix.
Matrigel (60 μl of 10 mg/ml; Collaborative Lab #35423) is placed in each well of an ice-cold 96-well plate. The plate is allowed to sit at room temperature for 15 minutes then incubated at 37° C. for 30 minutes to permit the matrigel to polymerize. In the mean time, HUVECs are prepared in EGM-2 (Clonetic #CC3162) at a concentration of 2×10^5 cells/ml. The test compound is prepared at 2× the desired concentration (5 concentration levels) in the same medium. Cells (500 μl) and 2× drug (500 μl) is mixed and 200 μl of this suspension are placed in duplicate on the polymerized matrigel. After 24 h incubation, triplicate pictures are taken for each concentration using a Bioquant Image Analysis system. Drug effect (IC50) is assessed compared to untreated controls by measuring the length of cords formed and number of junctions.
Matrigel (60 μl of 10 mg/ml; Collaborative Lab, Cat. No. 35423) was placed in each well of an ice-cold 96-well plate. The plate was allowed to sit at room temperature for 15 minutes then incubated at 37° C. for 30 minutes to permit Matrigel to polymerize. In the mean time, human umbilical vein endothelial cells were prepared in EGM-2 (Clonetic, Cat. No. CC3162) at a concentration of 2×10^5 cells/ml. The test protein was prepared at 2× the desired concentration (5 concentration levels) in the same medium. Cells (500 μl) and 2× protein (500 μl) were mixed and 200 μl of this suspension were placed in duplicate on the polymerized Matrigel. After 24 h incubation, triplicate pictures were taken for each concentration using a Bioquant Image Analysis system. Protein addition effect (IC50) was assessed compared to untreated controls by measuring the length of cords formed and number of junctions.

[4] = biological target: T1, EphrinB2 (Homo sapiens, UniProt P52799); experiment: Ephrin B2-AP binding to immobilized EphB4EC proteins; conditions: B4 proteins immobilized on Ni2+-resin or nitrocellulose
T1 construct: protein fusion of Ephrin B2 ectodomain with placental alkaline phosphatase
Description: 10 μl of Ni-NTA-Agarose were incubated in microcentrifuge tubes with 50 μl of indicated amount of B4ECv3 diluted in binding buffer BB (20 mM Tris-HCl, 0.15 M NaCl, 0.1% bovine serum albumin pH 8) After incubation for 30 min on shaking platform, Ni-NTA beads were washed twice with 1.4 ml of BB, followed by application of 50 μl of B2-AP in the final concentration of 50 nM. Binding was performed for 30 min on shaking platform, and then tubes were centrifuged and washed one time with 1.4 ml of BB. Amount of precipitated AP was measured colorimetrically after application of PNPP.
To confirm ability of the purified recombinant proteins to bind Ephrin B2, they were tested in an in vitro binding assay. As expected, GC, GCF1 and GCF2, but not CF2 are binding the cognate ligand Ephrin B2 as confirmed by interaction between Ephrin B2-alkaline phosphatase (Ephrin B2-AP) fusion protein with the B4 proteins immobilized on Ni^2+-resin or on nitrocellulose membrane (FIG. 17).

[5] = tested on: EphB4 receptor; experiment: Cell-based EphB4 tyrosine kinase assay in PC3 cells; design: species or system human; conditions: Ephrin B2-Fc ligand preincubated with protein
Description: All four proteins were also tested for their ability to block ligand-dependent dimerization and activation of Eph B4 receptor kinase in PC3 cells. The PC3 human prostate cancer cell line is known to express elevated levels of human Eph B4. Stimulation of PC3 cells with Ephrin B2 IgG Fc fusion protein leads to a rapid induction of tyrosine phosphorylation of the receptor. However, preincubation of the ligand with GCF2, GCF1 or GC, but not CF2 proteins suppresses subsequent EphB4 autophosphorylation.
The human prostate carcinoma cell line PC3 cells were maintained in RPMI medium with 10% dialyzed fetal calf serum and 1% penicillin/streptomycin/neomycin antibiotics mix. Cells were maintained at 37° C. in a humidified atmosphere of 5% CO2/95% air. Typically, cells were grown in 60 mm dishes until confluency and were either treated with mouse Ephrin B2-Fc fusion at 1 μg/ml in RPMI for 10 min to activate EphB4 receptor or plain medium as a control. To study the effect of different derivatives of soluble EphB4 ECD proteins on EphB4 receptor activation, three sets of cells were used. In the first set, cells were treated with various proteins (5 proteins; GC, GCF1, GCF2, GCF2-F, CF2) at 5 μg/ml for 20 min. In the second set of cells, prior to application, proteins were premixed with ephrinB2-Fc at 1:5 (EphB4 protein:B2-Fc) molar ratio, incubated for 20 min and applied on cells for 10 min. In the third set of cells, cells were first treated with the proteins for 20 min at 5 μg/ml, media was replaced with fresh media containing 1 μg/ml of EphrinB2-Fc and incubated for another 10 min.
After the stimulation, cells were immediately harvested with protein extraction buffer containing 20 mM Tris-HCl, pH 7.4, 150 mM NaCl, 1% (v/v) Triton X100, 1 mM EDTA, 1 mM PMSF, 1 mM Sodium vanadate. Protein extracts were clarified by centrifugation at 14,000 rpm for 20 min at 4° C. Clarified protein samples were incubated overnight with protein A/G coupled agarose beads pre-coated with anti-EphB4 monoclonal antibodies. The IP complexes were washed twice with the same extraction buffer containing 0.1% Triton X100. The immunoprecipitated proteins were solubilized in 1×SDS-PAGE sample loading buffer and separated on 10% SDS-PAGE. For EphB4 receptor activation studies, electroblotted membrane was probed with anti-pTyr specific antibody 4G10 at 1:1000 dilution followed by Protein G-HRP conjugate at 1:5000 dilutions.

T1 sequence (P52799 28-229 limits assumed): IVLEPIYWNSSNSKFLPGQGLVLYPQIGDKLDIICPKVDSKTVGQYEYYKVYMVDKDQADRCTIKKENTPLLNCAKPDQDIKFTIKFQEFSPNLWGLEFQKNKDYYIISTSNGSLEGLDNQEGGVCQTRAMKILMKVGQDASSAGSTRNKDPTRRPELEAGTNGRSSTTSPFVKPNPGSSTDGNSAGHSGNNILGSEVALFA

| Molecule | EGF stimulated induction of EphB4 [1] | basal levels of EphB4 [1] | also measured |
| --- | --- | --- | --- |
| COc1cccc(-c2cc(=O)c3ccccc3o2)c1N [PD098095] | no discernible effect | reduced |  |
| C[S+]([O-])c1ccc(-c2nc(-c3ccncc3)c(-c3ccc(F)cc3)[nH]2)cc1 (centres unmarked) [SB203580] |  | increased |  |
| CCCCCCCCCCCCCCCCCCOC[C@H](COP(=O)(O)O[C@H]1[C@H](O)[C@@H](O)[C@H](O)C[C@H]1OC)OC [SH-5] | blocked | reduced |  |
| COc1ccc2c(c1)CC[C@@H]1[C@@H]2CC[C@]2(C)[C@@H](NCCCCCCN3C(=O)C=CC3=O)CC[C@@H]12 [U73122] | blocked | reduced |  |
| B2EC-FC: Ephrin B2 extracellular domain fused to human IgG1 Fc fragment, SEQ ID NO:5 |  |  | chemotaxis of human endothelial cells [2]: blocked chemotaxis; endothelial cell tube / tubule / cord formation [3]: inhibition |
| B1 |  |  | chemotaxis of human endothelial cells [2]: blocked chemotaxis |
| B2 |  |  | binding the cognate ligand Ephrin B2 [4]: binding; EphB4 autophosphorylation [5]: suppresses |
| B3 |  |  | binding the cognate ligand Ephrin B2 [4]: binding; EphB4 autophosphorylation [5]: suppresses |
